[ ]: non-standard residue; d: D form. Bpa = N[C@@H](Cc1ccc(C(=O)c2ccccc2)cc1)C(=O)O; 1Nal = N[C@@H](Cc1cccc2ccccc12)C(=O)O; 2Nal = N[C@@H](Cc1ccc2ccccc2c1)C(=O)O
Each molecule was assayed against T1, pd-FVIII (Homo sapiens, UniProt P00451) (assay: Affinity chromatography purification of FVIII on peptide-coated resin column (OD280, one-stage APTT activity)). Conditions: P1; FBS-containing conditioned DMEM spiked with FVIII.
T1 construct: from tissue; host or cells: human blood plasma (FVIII concentrate)
T1 sequence (P00451 20-1667 limits assumed): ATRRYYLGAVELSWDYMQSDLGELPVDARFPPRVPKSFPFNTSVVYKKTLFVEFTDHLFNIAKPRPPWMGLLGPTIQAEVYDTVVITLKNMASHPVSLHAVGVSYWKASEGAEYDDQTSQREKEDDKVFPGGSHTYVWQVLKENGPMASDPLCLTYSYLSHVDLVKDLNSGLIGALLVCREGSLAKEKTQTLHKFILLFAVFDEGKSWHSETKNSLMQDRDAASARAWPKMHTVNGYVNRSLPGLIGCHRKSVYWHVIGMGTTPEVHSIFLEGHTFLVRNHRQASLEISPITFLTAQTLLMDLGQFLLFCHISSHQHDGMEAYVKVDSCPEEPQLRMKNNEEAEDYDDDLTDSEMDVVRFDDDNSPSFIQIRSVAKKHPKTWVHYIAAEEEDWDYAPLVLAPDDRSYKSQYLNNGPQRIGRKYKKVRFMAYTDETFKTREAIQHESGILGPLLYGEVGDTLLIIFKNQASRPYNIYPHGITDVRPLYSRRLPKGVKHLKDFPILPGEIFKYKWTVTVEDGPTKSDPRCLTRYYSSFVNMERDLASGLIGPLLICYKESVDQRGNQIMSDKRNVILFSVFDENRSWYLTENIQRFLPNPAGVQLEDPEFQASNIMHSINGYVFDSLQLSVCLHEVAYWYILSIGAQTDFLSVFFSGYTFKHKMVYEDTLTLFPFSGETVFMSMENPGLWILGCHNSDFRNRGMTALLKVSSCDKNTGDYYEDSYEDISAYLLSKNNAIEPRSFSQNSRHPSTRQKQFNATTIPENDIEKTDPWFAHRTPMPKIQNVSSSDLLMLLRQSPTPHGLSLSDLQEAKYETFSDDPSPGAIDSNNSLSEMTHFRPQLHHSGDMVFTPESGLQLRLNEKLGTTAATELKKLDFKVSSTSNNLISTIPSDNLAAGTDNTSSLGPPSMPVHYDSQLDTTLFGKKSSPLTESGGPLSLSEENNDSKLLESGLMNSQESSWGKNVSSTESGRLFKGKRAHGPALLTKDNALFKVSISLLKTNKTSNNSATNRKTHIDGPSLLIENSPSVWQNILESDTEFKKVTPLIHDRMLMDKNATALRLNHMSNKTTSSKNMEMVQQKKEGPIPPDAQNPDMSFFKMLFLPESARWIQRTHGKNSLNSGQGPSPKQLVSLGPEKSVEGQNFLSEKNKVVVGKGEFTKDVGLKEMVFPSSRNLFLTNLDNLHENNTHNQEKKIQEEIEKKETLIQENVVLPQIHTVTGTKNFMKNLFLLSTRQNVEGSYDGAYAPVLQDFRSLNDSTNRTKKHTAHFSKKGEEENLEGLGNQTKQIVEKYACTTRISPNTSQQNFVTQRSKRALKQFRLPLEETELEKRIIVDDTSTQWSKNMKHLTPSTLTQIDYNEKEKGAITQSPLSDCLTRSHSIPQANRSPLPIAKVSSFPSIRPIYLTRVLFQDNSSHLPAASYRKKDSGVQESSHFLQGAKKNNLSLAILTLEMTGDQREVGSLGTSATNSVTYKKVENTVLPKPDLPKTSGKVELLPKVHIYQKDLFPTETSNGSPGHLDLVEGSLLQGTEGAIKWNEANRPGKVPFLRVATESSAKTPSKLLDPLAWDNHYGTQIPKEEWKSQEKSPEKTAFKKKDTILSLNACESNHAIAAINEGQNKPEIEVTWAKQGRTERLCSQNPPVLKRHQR
T1 sequence (P00451 1668-2351 limits assumed): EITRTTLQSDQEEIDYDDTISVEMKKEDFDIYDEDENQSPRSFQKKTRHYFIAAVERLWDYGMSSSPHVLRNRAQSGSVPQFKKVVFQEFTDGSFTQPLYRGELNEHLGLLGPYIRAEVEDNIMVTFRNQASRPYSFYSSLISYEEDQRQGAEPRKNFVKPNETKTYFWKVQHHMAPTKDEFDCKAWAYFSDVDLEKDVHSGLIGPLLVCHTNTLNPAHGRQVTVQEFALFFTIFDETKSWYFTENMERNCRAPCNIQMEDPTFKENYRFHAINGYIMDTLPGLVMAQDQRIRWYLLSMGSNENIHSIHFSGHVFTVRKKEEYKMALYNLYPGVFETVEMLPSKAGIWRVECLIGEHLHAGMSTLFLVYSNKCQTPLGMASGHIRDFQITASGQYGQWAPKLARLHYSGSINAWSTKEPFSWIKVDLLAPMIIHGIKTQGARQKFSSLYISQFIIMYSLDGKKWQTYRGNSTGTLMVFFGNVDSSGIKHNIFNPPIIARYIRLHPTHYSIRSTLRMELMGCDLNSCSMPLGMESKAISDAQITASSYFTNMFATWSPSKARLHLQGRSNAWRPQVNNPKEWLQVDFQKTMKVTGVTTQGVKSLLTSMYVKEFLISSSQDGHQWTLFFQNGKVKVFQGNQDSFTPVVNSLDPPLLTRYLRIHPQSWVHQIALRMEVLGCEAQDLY

For “H-Trp-Glu-Tyr-Cys-OH (H-WEYC-OH) [Compound P1]”, the “Activity, Elution” value was 66 IU/ml.

For “H-Trp-Glu-Tyr-Cys-OH (H-WEYC-OH) [Compound P1]”, the “Activity, Flow-through” value was 6 IU/ml.

In the case of “H-Trp-Glu-Tyr-Cys-OH (H-WEYC-OH) [Compound P1]”, the “OD 280, Elution” value is reported as 0.08.

With “H-Trp-Glu-Tyr-Cys-OH (H-WEYC-OH) [Compound P1]” the “OD 280, Flow-through” value was 0.49.

With “H-Trp-Glu-Tyr-Cys-OH (H-WEYC-OH) [Compound P1]” the “Purification, times” value was 13 times.

The molecules below were run against T1, pd-FVIII in the same assay as above. Conditions: P1; Pure fVIII.
Protocol: The peptido-mimetic derivative P22 was immobilized on the Toyopearl resin as described in Example 1. 25 mg of peptide and 360 mg of resin were used. The resulting resin (˜1 ml) was packed in a glass column (Pharmacia-Biotech). The purification procedure was performed using a Waters 650E Advanced Protein Purification System. Buffer A was 0.01 M Hepes, 0.1 M NaCl, 5 mM CaCl2, 0.01% Tween-80 and Buffer B was 0.01 M Hepes, 1 M NaCl, 5 mM CaCl2, 0.01% Tween-80 (pH 6.8). The elution was monitored by a flow-through UV detector (Waters 490 E) by optical density at 280 nm (OD280). The elution fractions were then analyzed for their protein content by determining OD280 and FVIII activity was determined in a one-stage APTT assay using MLA Electra-800 automatic coagulation timer. The samples from elution fractions were analyzed by 10% PAGE followed by silver staining and Western blotting using monoclonal antibodies against FVIII.
FVIII (0.5 mg), previously purified by immunoaffinity and ion-exchange chromatography as described above, was diluted by 0.01 M Hepes, 5 mM CaCl2, 0.01% Tween-80 to a final salt concentration of 0.1 M NaCl. The mixture was applied onto the P22-column, followed by wash with Buffer A, until the OD280 returned to background.
The purification of FVIII was performed from cell-conditioned FBS-containing SF9 media, spiked with FVIII. FVIII (0.5 mg), previously purified by immunoaffinity and ion-exchange chromatography as described above, was mixed with cell-conditioned FBS-containing SF9 media, which was diluted with 0.01 M Hepes, 5 mM CaCl2, 0.01% Tween-80 to a final salt concentration of 0.1 M NaCl. The mixture was applied onto the column, followed by wash with Buffer A, until the OD280 returned to background. The wash with 85% Buffer A 15% Buffer B was performed to elute some of bound contaminating proteins.
Peptide P1 was bonded to the resin as described in Example 1. 25 mg of peptide and 360 mg of resin were used. The resulting resin (˜1 ml) was packed in a glass column (Pharmacia-Biotech). A FVIII containing sample was purified as described with respect to Example 3, the only difference between the two experiments being the absence of a prelusion step with Buffer A in the present experiment.

In the case of “H-Trp-Glu-Tyr-Cys-OH (H-WEYC-OH) [Compound P1]”, the “Activity, Elution” value is reported as 552 IU/ml.

For “H-Trp-Glu-Tyr-Cys-OH (H-WEYC-OH) [Compound P1]”, the “Activity, Flow-through” value was 9 IU/ml.

For “H-Trp-Glu-Tyr-Cys-OH (H-WEYC-OH) [Compound P1]”, the “OD 280, Elution” value was 0.108.

“H-Trp-Glu-Tyr-Cys-OH (H-WEYC-OH) [Compound P1]” was tested, and the “OD 280, Flow-through” value was 0.02.

“H-Trp-Glu-Tyr-Cys-OH (H-WEYC-OH) [Compound P1]” was tested, and the “Purification, times” value was 2 times.

What follows are molecules tested against T2, plasma-derived (pd-) human Factor VIII (FVIII) (Homo sapiens, UniProt P00451) (assay: Binding of 125I-labeled pd-FVIII to peptides immobilized on Toyopearl AF-Epoxy-650M resin (micro-beads assay)). Conditions: Table 1; 125I-pd-FVIII Bound/Background ratio versus uncoated control resin.
T2 construct: from tissue; host or cells: human blood plasma (FVIII concentrate)
T2 sequence (P00451 20-1667 limits assumed): as the sequence (P00451 20-1667 limits assumed) above
T2 sequence (P00451 1668-2351 limits assumed): as the sequence (P00451 1668-2351 limits assumed) above
Protocol: Peptides P1 to P25 were immobilized on the Toyopearl AF-Epoxy-650M resin (Tosoh Biosep) as described by Jungbauer et al. For immobilization, 2.5 mg of each peptide was dissolved in 0.25 mL of the immobilization buffer (0.2 M sodium bicarbonate, pH 10.3), and 0.036 g of the dry resin powder (corresponding to 0.125 mL of swollen resin) was added, followed by incubation of the mixture with gentle rotation for 48 hours. Upon incubation for 48 hours the resin was washed once with immobilization buffer, once with 1 M NaCl and then 3 times with binding buffer, and binding of ^125I-labeled pd-FVIII to the peptide-coated and control resin was tested. The coupling density of each peptide in each of the reported experiments was as mentioned in Table 1. The control 0.25 mL portion of the resin was similarly treated in parallel experiment in the absence of peptide and was subsequently used as a control (designated as Background) in ^125I-pd-FVIII binding experiments. ^125I-pd-FVIII Bound/Background ratios were calculated as the amount of ^125I-pd-FVIII, bound to an immobilized peptide, divided by that bound to uncoated control resin, prepared as described above. This ratio represents a Signal/Noise ratio for the micro-beads assay, since ^125I-pd-FVIII bound to peptide represents the signal value and ^125I-pd-FVIII bound to peptide-uncoated resin represents the background (noise) value.
Plasma-derived (pd-) human Factor VIII (FVIII) was purified from concentrate by immunoaffinity chromatography on an anti-FVIII monoclonal antibody column followed by subsequent concentration of pd-FVIII by ion-exchange chromatography using Resource Q HR5/5 column. To separate FVIII from vWf, concentrate was incubated in 0.35 M NaCl, 0.04 M CaCl2, prior to affinity purification.
Trace amounts of vWf, which are potentially present in pd-FVIII preparation, were removed by passing pd-FVIII preparation through the column with anti-vWf high affinity monoclonal antibody, immobilized at the density 1.4 mg per mL of resin.
Ten μg of purified pd-FVIII were iodinated using lactoperoxidase beads and 0.5 mCi of Na^125I.
The resin with immobilized peptides was washed in the binding buffer (0.01 M Hepes, 0.1 M NaCl, 5 mM CaCl2, 0.01% Tween-80). Subsequently, the resin was diluted in the binding buffer as 1:7 slurry and aliquoted into Eppendorf tubes (40 μl per tube). ^125I-pd-FVIII (100000 cpm in 10 μl) was added to the tubes and the volume of the mixture was adjusted to 100 μl by adding 50 μl of the binding buffer containing 4% BSA to give a 2% final concentration of BSA. After 2 hours of incubation at room temperature on a rotator, the samples were washed 4 times in the binding. After each wash the tubes were centrifuged at 5000 rpm for 1 min in an Eppendorf microcentrifuge, supernatant was discarded, and the resin was re-suspended in the washing buffer, followed by centrifugation under the same conditions. After four washes the tubes with pellet without supernatant were counted for radioactivity. The resin without peptide was processed similarly to account for non-specific pd-FVIII binding to tubes and resin itself, and the radioactivity in this control tube was considered as a background value. Since ^125I-pd-FVIII contains the some fraction damaged during radiolabeling, binding was calculated as a percent of maximal achievable binding, determined in separate experiment with anti-FVIII Mab 8860-coated resin.
All the measurements were performed in duplicates. Each experiment was performed using two independently prepared immobilized peptide samples. The data presented in each figure are the mean values of the four determinations: duplicate determination in the two assays performed with beads on which peptides were independently immobilized on the different days. […]

In order of falling “Binding, rel. to control” value:
1. H-Trp-Glu-Tyr-Gly-Cys-OH (H-WEYGC-OH) [Compound P4]  27.4 ± 1.3
2. H-[1Nal]EYC-OH [Compound P13]  26.1 ± 2.3
3. H-Trp-Asp-Tyr-Cys-OH (H-WDYC-OH) [Compound P11]  24.7 ± 2.7
4. IAA-Asp-Tyr-Cys-OH [Compound P16]  24.7 ± 0.3
5. IBA-Glu-Tyr-Cys-OH [Compound P17]  24.7 ± 1.5
6. H-WE[1Nal]C-OH [Compound P9]  23.8 ± 2.2
7. O=C(O)CCC(NCCc1c[nH]c2ccccc12)C(=O)NC(Cc1ccc(O)cc1)C(=O)NC(CS)C(=O)O (stereo not shown) [Compound P25]  22.7 ± 0.8
8. H-[2Nal]EYC-OH [Compound P14]  22.7 ± 2.4
9. H-[Bpa]EYC-OH [Compound P12]  22.3 ± 0.5
10. H-Trp-Glu-Tyr-Aha-Cys-OH [Compound P5]  22.2 ± 1.9
11. H-Trp-Glu-Tyr-homo-Cys-OH [Compound P3]  21.9 ± 1.3
12. IPA-Asp-Tyr-Cys-OH [Compound P20]  21.4 ± 1.4
13. H-Trp-Glu-Tyr-Cys-OH (H-WEYC-OH) [Compound P1]  20.9 ± 1.7
14. IBA-Asp-Tyr-Cys-OH [Compound P18]  20.2 ± 2.5
15. H-D-Cys-D-Tyr-D-Glu-D-Trp-OH [Compound P7]  19.8 ± 0.3
16. H-Trp-Glu-Tyr(OMe)-Cys-OH [Compound P10]  19.0 ± 3.0
17. Ac-Trp-Glu-Tyr-Cys-NH2 (Ac-WEYC-NH2) [Compound P2]  18.9 ± 2.0
18. IPA-Glu-Tyr-Cys-OH [Compound P19]  18.7 ± 1.7
19. H-Trp-Glu-Tyr-Gly-Aha-Cys-OH [Compound P6]  15.2 ± 0.7
20. H-Trp-Glu-Phe-Cys-OH (H-WEFC-OH) [Compound P8]  8.7 ± 0.1

Same assay, conditions: Table 1; immobilized on Toyopearl AF-Epoxy-650M; percent of maximal achievable binding (anti-FVIII Mab 8860-coated resin); mean of four determinations

In order of rising “% Binding pdFVIII” value:
1. H-Trp-Glu-Phe-Cys-OH (H-WEFC-OH) [Compound P8]  24.7 ± 0.1%
2. H-Trp-Glu-Tyr-homo-Cys-OH [Compound P3]  38.4 ± 2.3%
3. H-Trp-Glu-Tyr-Aha-Cys-OH [Compound P5]  42.7 ± 2.3%
4. H-Trp-Glu-Tyr-Gly-Aha-Cys-OH [Compound P6]  43.1 ± 2.0%
5. H-Trp-Glu-Tyr-Cys-OH (H-WEYC-OH) [Compound P1]  47.6 ± 4.0%
6. H-Trp-Glu-Tyr-Gly-Cys-OH (H-WEYGC-OH) [Compound P4]  52.7 ± 2.5%
7. IPA-Glu-Tyr-Cys-OH [Compound P19]  53.2 ± 4.9%
8. Ac-Trp-Glu-Tyr-Cys-NH2 (Ac-WEYC-NH2) [Compound P2]  53.6 ± 5.7%
9. O=C(O)CCC(NCCc1c[nH]c2ccccc12)C(=O)NC(Cc1ccc(O)cc1)C(=O)NC(CS)C(=O)O (stereo not shown) [Compound P25]  53.7 ± 1.9%
10. H-Trp-Glu-Tyr(OMe)-Cys-OH [Compound P10]  54.1 ± 8.4%
11. H-D-Cys-D-Tyr-D-Glu-D-Trp-OH [Compound P7]  56.1 ± 0.9%
12. H-[Bpa]EYC-OH [Compound P12]  57.0 ± 1.39%
13. IBA-Asp-Tyr-Cys-OH [Compound P18]  57.2 ± 7.2%
14. H-[2Nal]EYC-OH [Compound P14]  58.1 ± 6.1%
15. IPA-Asp-Tyr-Cys-OH [Compound P20]  60.7 ± 4.1%
16. H-WE[1Nal]C-OH [Compound P9]  60.9 ± 5.5%
17. IBA-Glu-Tyr-Cys-OH [Compound P17]  62.7 ± 3.9%
18. H-Trp-Asp-Tyr-Cys-OH (H-WDYC-OH) [Compound P11]  62.8 ± 6.9%
19. H-[1Nal]EYC-OH [Compound P13]  66.8 ± 5.9%
20. IAA-Asp-Tyr-Cys-OH [Compound P16]  70.1 ± 0.8%

Same assay, conditions: Table 2; comparative compound immobilized on Toyopearl AF-Epoxy-650M

With “ECYYEHWS [scrambled, reference compound]” the “% Binding pdFVIII” value was 6.5 ± 0.5%.

Same assay, conditions: Table 2; ratio versus uncoated resin

In the case of “ECYYEHWS [scrambled, reference compound]”, the “Binding, rel. to control” value is reported as 4.1 ± 0.3.

Reference: patent US20090215025A1, “SMALL PEPTIDIC AND PEPTIDO-MIMETIC AFFINITY LIGANDS FOR FACTOR VIII AND FACTOR VIII-LIKE PROTEINS” (TECHNISCHE UNIVERSITAT MUNCHEN, priority 2005, published 2009)
